target: MYLK3 (human) (UniProt Q32MK0); test: KINOMEscan competition binding; conditions: compound 10.0 µM

Row | Compound | kinase still bound, per cent of control [%]
1 | CCOc1cc(N2CCC(N3CCCCC3)CC2)ccc1Nc1nc(Nc2ccccc2S(=O)(=O)C(C)C)c2cn[nH]c2n1 | 100

target: MUSK (human) (UniProt O15146); test: KINOMEscan competition binding; conditions: compound 10.0 µM
Sequence (O15146 whole entry, looked up): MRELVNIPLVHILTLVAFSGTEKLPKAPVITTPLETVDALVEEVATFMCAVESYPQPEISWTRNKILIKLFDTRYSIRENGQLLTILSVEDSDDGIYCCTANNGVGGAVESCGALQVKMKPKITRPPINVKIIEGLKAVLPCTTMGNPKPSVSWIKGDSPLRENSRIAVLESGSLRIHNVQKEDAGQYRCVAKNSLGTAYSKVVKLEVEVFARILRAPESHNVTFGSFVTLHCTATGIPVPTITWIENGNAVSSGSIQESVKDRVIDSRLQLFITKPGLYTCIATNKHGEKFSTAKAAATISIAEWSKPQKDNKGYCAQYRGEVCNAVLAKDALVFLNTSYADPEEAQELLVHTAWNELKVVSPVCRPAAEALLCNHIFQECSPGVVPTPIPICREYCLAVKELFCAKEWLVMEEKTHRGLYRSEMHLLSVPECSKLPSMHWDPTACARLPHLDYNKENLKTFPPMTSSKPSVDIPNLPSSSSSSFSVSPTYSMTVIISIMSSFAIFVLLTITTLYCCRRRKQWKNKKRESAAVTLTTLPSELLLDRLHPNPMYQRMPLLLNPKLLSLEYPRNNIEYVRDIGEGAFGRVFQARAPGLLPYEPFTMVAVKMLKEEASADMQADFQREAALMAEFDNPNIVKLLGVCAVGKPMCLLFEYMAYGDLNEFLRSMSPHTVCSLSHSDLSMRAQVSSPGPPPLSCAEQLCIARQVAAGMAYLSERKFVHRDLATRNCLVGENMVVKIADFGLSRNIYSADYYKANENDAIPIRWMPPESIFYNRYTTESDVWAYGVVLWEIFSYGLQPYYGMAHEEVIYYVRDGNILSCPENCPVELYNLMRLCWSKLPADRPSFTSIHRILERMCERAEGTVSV

Row | Compound | kinase still bound, per cent of control [%]
2 | CCN1CCN(Cc2ccc(NC(=O)c3ccc(C)c(/C=C/c4cnc(Nc5cc(N6CCNCC6)nc(C)n5)cn4)c3)cc2C(F)(F)F)CC1 | 5.2
3 | COc1cc(N2CCC(N3CCN(C)CC3)CC2)ccc1Nc1ncc(Cl)c(Nc2ccccc2S(=O)(=O)C(C)C)n1 | 0.35
4 | CCOc1cc(N2CCC(N3CCCCC3)CC2)ccc1Nc1nc(Nc2ccccc2S(=O)(=O)C(C)C)c2cn[nH]c2n1 | 100
5 | CCN1CCN(Cc2ccc(NC(=O)c3ccc(C)c(Oc4ccnc5[nH]ccc45)c3)cc2C(F)(F)F)CC1 | 0.2

target: CLK3 (human) (UniProt P49761); test: KINOMEscan competition binding; conditions: compound 10.0 µM
Sequence (P49761 whole entry, looked up): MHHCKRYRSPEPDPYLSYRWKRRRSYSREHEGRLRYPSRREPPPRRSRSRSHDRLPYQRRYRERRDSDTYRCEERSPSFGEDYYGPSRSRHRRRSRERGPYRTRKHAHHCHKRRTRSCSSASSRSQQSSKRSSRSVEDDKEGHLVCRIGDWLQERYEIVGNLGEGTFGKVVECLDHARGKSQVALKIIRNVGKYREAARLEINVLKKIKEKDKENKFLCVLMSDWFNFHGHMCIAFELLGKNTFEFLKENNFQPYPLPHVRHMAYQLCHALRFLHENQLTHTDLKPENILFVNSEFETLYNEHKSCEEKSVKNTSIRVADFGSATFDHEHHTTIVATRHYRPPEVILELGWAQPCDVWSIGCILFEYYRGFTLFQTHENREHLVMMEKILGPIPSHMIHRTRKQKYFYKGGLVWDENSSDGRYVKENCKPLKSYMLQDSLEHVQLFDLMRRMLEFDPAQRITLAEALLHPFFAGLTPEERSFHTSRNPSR

Row | Compound | kinase still bound, per cent of control [%]
6 | CCN1CCN(Cc2ccc(NC(=O)c3ccc(C)c(/C=C/c4cnc(Nc5cc(N6CCNCC6)nc(C)n5)cn4)c3)cc2C(F)(F)F)CC1 | 100
7 | COc1cc(N2CCC(N3CCN(C)CC3)CC2)ccc1Nc1ncc(Cl)c(Nc2ccccc2S(=O)(=O)C(C)C)n1 | 3
8 | CCOc1cc(N2CCC(N3CCCCC3)CC2)ccc1Nc1nc(Nc2ccccc2S(=O)(=O)C(C)C)c2cn[nH]c2n1 | 50

target: RIOK2 (human) (UniProt Q9BVS4); test: KINOMEscan competition binding; conditions: compound 10.0 µM

Row | Compound | kinase still bound, per cent of control [%]
9 | CCN1CCN(Cc2ccc(NC(=O)c3ccc(C)c(/C=C/c4cnc(Nc5cc(N6CCNCC6)nc(C)n5)cn4)c3)cc2C(F)(F)F)CC1 | 85
10 | COc1cc(N2CCC(N3CCN(C)CC3)CC2)ccc1Nc1ncc(Cl)c(Nc2ccccc2S(=O)(=O)C(C)C)n1 | 5.3
11 | CCOc1cc(N2CCC(N3CCCCC3)CC2)ccc1Nc1nc(Nc2ccccc2S(=O)(=O)C(C)C)c2cn[nH]c2n1 | 76

target: EPHA4 (human) (UniProt P54764); test: KINOMEscan competition binding; conditions: compound 10.0 µM

Row | Compound | kinase still bound, per cent of control [%]
12 | CCN1CCN(Cc2ccc(NC(=O)c3ccc(C)c(/C=C/c4cnc(Nc5cc(N6CCNCC6)nc(C)n5)cn4)c3)cc2C(F)(F)F)CC1 | 16
13 | COc1cc(N2CCC(N3CCN(C)CC3)CC2)ccc1Nc1ncc(Cl)c(Nc2ccccc2S(=O)(=O)C(C)C)n1 | 30
14 | CCOc1cc(N2CCC(N3CCCCC3)CC2)ccc1Nc1nc(Nc2ccccc2S(=O)(=O)C(C)C)c2cn[nH]c2n1 | 100
15 | CCN1CCN(Cc2ccc(NC(=O)c3ccc(C)c(Oc4ccnc5[nH]ccc45)c3)cc2C(F)(F)F)CC1 | 5.8

target: MST4 (human) (UniProt Q9P289); test: KINOMEscan competition binding; conditions: compound 10.0 µM
Sequence (Q9P289 whole entry, looked up): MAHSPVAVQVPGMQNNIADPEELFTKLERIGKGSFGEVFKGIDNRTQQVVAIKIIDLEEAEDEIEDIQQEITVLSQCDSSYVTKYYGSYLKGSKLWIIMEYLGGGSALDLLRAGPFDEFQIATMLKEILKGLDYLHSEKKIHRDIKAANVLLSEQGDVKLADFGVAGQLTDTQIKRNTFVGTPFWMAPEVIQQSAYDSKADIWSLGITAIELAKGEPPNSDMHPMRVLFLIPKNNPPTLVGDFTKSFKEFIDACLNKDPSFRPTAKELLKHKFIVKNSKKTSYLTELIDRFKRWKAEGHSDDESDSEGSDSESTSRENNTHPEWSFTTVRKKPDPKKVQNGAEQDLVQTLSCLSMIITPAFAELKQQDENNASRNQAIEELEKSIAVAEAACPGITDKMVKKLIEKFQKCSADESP

Row | Compound | kinase still bound, per cent of control [%]
16 | CCN1CCN(Cc2ccc(NC(=O)c3ccc(C)c(/C=C/c4cnc(Nc5cc(N6CCNCC6)nc(C)n5)cn4)c3)cc2C(F)(F)F)CC1 | 4.6
17 | COc1cc(N2CCC(N3CCN(C)CC3)CC2)ccc1Nc1ncc(Cl)c(Nc2ccccc2S(=O)(=O)C(C)C)n1 | 27
18 | CCOc1cc(N2CCC(N3CCCCC3)CC2)ccc1Nc1nc(Nc2ccccc2S(=O)(=O)C(C)C)c2cn[nH]c2n1 | 100

target: MYO3A (human) (UniProt Q8NEV4); test: KINOMEscan competition binding; conditions: compound 10.0 µM
Sequence (Q8NEV4 whole entry, looked up): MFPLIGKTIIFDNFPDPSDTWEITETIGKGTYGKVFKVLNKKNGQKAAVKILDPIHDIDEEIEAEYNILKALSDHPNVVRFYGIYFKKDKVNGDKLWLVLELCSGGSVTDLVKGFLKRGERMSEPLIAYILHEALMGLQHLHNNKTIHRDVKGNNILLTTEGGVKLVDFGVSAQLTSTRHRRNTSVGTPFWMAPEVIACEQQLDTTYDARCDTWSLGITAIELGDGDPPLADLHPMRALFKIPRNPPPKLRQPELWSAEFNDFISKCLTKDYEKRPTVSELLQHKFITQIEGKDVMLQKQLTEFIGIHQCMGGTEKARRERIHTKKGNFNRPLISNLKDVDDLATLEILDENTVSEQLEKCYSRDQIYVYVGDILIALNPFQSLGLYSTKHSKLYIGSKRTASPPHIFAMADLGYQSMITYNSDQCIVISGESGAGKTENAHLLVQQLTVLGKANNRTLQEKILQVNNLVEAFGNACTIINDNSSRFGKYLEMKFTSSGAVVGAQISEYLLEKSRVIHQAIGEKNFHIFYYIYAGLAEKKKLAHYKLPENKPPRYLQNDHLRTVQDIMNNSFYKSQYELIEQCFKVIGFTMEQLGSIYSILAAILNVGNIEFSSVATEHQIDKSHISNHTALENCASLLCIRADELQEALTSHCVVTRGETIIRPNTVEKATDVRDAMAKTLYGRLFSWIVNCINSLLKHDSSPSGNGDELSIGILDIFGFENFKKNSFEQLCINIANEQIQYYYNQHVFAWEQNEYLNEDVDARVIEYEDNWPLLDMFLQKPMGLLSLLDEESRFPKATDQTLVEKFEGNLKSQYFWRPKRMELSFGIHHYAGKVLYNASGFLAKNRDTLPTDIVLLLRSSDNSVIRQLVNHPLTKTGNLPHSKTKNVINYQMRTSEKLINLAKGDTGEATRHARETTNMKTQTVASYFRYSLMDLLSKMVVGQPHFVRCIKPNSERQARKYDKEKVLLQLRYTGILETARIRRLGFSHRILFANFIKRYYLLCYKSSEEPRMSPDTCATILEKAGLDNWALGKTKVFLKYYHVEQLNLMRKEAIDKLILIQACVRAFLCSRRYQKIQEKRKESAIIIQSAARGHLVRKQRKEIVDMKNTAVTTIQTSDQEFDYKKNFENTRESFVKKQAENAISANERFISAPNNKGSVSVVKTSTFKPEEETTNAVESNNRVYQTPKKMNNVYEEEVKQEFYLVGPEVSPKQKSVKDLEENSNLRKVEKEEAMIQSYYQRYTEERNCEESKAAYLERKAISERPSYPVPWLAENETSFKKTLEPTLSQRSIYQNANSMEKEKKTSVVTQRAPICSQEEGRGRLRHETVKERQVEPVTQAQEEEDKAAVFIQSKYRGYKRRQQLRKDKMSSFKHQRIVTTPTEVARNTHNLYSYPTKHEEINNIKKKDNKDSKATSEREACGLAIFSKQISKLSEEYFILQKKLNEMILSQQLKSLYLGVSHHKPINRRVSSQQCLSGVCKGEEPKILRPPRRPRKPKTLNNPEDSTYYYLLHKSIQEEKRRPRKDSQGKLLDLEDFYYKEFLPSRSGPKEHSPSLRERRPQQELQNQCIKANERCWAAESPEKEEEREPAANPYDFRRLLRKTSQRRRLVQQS

Row | Compound | kinase still bound, per cent of control [%]
19 | CCN1CCN(Cc2ccc(NC(=O)c3ccc(C)c(/C=C/c4cnc(Nc5cc(N6CCNCC6)nc(C)n5)cn4)c3)cc2C(F)(F)F)CC1 | 60
20 | COc1cc(N2CCC(N3CCN(C)CC3)CC2)ccc1Nc1ncc(Cl)c(Nc2ccccc2S(=O)(=O)C(C)C)n1 | 0.25
21 | CCOc1cc(N2CCC(N3CCCCC3)CC2)ccc1Nc1nc(Nc2ccccc2S(=O)(=O)C(C)C)c2cn[nH]c2n1 | 38
22 | CCN1CCN(Cc2ccc(NC(=O)c3ccc(C)c(Oc4ccnc5[nH]ccc45)c3)cc2C(F)(F)F)CC1 | 6.4

target: ACVRL1 (human) (UniProt P37023); test: KINOMEscan competition binding; conditions: compound 10.0 µM
Sequence (P37023 whole entry, looked up): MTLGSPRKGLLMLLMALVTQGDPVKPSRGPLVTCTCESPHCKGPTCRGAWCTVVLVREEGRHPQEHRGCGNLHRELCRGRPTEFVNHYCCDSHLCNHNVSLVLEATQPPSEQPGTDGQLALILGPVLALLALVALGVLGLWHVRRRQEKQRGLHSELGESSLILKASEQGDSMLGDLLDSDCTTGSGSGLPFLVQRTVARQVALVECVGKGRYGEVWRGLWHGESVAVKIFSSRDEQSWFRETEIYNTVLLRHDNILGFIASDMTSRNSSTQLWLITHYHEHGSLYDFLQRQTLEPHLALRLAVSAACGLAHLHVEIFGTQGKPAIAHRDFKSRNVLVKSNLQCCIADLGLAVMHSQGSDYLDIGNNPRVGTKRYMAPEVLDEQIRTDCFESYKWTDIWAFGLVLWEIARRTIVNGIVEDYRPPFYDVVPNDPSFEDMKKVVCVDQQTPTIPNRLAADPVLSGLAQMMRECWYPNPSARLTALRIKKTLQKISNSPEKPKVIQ

Row | Compound | kinase still bound, per cent of control [%]
23 | CCN1CCN(Cc2ccc(NC(=O)c3ccc(C)c(/C=C/c4cnc(Nc5cc(N6CCNCC6)nc(C)n5)cn4)c3)cc2C(F)(F)F)CC1 | 79
24 | COc1cc(N2CCC(N3CCN(C)CC3)CC2)ccc1Nc1ncc(Cl)c(Nc2ccccc2S(=O)(=O)C(C)C)n1 | 1.7
25 | CCOc1cc(N2CCC(N3CCCCC3)CC2)ccc1Nc1nc(Nc2ccccc2S(=O)(=O)C(C)C)c2cn[nH]c2n1 | 100

target: EPHA1 (human) (UniProt P21709); test: KINOMEscan competition binding; conditions: compound 10.0 µM

Row | Compound | kinase still bound, per cent of control [%]
26 | CCN1CCN(Cc2ccc(NC(=O)c3ccc(C)c(/C=C/c4cnc(Nc5cc(N6CCNCC6)nc(C)n5)cn4)c3)cc2C(F)(F)F)CC1 | 10
27 | COc1cc(N2CCC(N3CCN(C)CC3)CC2)ccc1Nc1ncc(Cl)c(Nc2ccccc2S(=O)(=O)C(C)C)n1 | 0.15
28 | CCOc1cc(N2CCC(N3CCCCC3)CC2)ccc1Nc1nc(Nc2ccccc2S(=O)(=O)C(C)C)c2cn[nH]c2n1 | 100

target: MELK (human) (UniProt Q14680); test: KINOMEscan competition binding; conditions: compound 10.0 µM

Row | Compound | kinase still bound, per cent of control [%]
29 | CCN1CCN(Cc2ccc(NC(=O)c3ccc(C)c(/C=C/c4cnc(Nc5cc(N6CCNCC6)nc(C)n5)cn4)c3)cc2C(F)(F)F)CC1 | 25
30 | COc1cc(N2CCC(N3CCN(C)CC3)CC2)ccc1Nc1ncc(Cl)c(Nc2ccccc2S(=O)(=O)C(C)C)n1 | 0.95
31 | CCOc1cc(N2CCC(N3CCCCC3)CC2)ccc1Nc1nc(Nc2ccccc2S(=O)(=O)C(C)C)c2cn[nH]c2n1 | 92

target: PTK2B (human) (UniProt Q14289); test: KINOMEscan competition binding; conditions: compound 10.0 µM
Sequence (Q14289 whole entry, looked up): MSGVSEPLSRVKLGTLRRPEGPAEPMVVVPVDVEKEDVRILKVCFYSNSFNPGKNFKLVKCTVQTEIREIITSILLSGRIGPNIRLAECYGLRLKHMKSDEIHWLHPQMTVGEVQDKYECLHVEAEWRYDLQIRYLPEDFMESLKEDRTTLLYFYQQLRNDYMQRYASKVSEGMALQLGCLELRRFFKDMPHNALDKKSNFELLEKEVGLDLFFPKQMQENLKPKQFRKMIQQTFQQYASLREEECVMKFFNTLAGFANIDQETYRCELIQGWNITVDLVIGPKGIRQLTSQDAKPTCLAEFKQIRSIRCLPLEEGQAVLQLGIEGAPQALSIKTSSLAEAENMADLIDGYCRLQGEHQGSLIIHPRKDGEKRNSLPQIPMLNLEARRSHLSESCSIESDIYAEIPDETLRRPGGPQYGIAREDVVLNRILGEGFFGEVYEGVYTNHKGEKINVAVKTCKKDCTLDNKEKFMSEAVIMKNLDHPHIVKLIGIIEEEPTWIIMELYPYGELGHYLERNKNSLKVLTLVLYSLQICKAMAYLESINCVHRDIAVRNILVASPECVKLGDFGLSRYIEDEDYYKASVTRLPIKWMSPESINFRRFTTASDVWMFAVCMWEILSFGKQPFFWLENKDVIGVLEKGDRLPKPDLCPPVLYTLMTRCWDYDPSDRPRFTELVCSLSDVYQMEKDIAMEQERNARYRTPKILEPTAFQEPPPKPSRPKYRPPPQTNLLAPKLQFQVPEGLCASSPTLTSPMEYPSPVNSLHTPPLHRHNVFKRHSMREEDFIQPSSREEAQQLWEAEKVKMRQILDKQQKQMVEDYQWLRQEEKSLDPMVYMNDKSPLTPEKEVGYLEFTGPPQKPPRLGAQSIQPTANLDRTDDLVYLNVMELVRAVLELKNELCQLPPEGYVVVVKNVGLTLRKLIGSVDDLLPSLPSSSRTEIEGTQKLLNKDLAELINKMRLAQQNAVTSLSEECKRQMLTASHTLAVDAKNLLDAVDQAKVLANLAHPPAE

Row | Compound | kinase still bound, per cent of control [%]
32 | CCN1CCN(Cc2ccc(NC(=O)c3ccc(C)c(/C=C/c4cnc(Nc5cc(N6CCNCC6)nc(C)n5)cn4)c3)cc2C(F)(F)F)CC1 | 36
33 | COc1cc(N2CCC(N3CCN(C)CC3)CC2)ccc1Nc1ncc(Cl)c(Nc2ccccc2S(=O)(=O)C(C)C)n1 | 0
34 | CCOc1cc(N2CCC(N3CCCCC3)CC2)ccc1Nc1nc(Nc2ccccc2S(=O)(=O)C(C)C)c2cn[nH]c2n1 | 5
35 | CCN1CCN(Cc2ccc(NC(=O)c3ccc(C)c(Oc4ccnc5[nH]ccc45)c3)cc2C(F)(F)F)CC1 | 2.1

target: ADCK4 (human) (UniProt Q96D53); test: KINOMEscan competition binding; conditions: compound 10.0 µM

Row | Compound | kinase still bound, per cent of control [%]
36 | CCN1CCN(Cc2ccc(NC(=O)c3ccc(C)c(/C=C/c4cnc(Nc5cc(N6CCNCC6)nc(C)n5)cn4)c3)cc2C(F)(F)F)CC1 | 93

Source: the kinase profiling compilation of Christmann-Franck et al. (2016)
